Values after ≈ are worked out from the molar mass of the structure shown.
What was measured:
Assay type in all cases: cell-based
[1] = tested on: Candida parapsilosis 22019; test: Antifungal microdilution, C. parapsilosis ATCC 22019; conditions: microdilution CLSI M27-A3, 48 h, 37 °C, read-out: MIC C.p. 22019
Experimental: (§1) In accordance with CLSI guidelines, compounds 3a–h were tested against a variety of fungal strains (Candida albicans 10231, Candida albicans 90028, Candida glabrata 15126, and Candida parapsilosis 22019) belonging to the ATCC collection. Amphotericin B was utilized as a reference drug. A similar trend of results, or even better than that obtained against bacteria, was assessed against fungal strains. […] Also, in this case, compound 3h emerged as the best of the series, with MICs of 16 μg/mL against Candida glabrata and Candida parapsilosis strains and 32 μg/mL against Candida albicans strains.
(§2) A microdilution technique described by the Clinical and Laboratory Standards Institute (CLSI, M27-A3) was used to assess the antifungal activity. The following fungal strains, belonging to the ATCC collection and available as freeze-dried discs, were used: C. albicans ATCC 10231, C. albicans ATCC 90028, C. glabrata ATCC 15126, and C. parapsilosis ATCC 22019. Stock solutions were prepared and preserved with purity as previously described for the antibacterial studies. Each yeast strain’s pre-cultures were made in Sabouraud broth (SAB) and allowed to grow until they stopped at 37 °C. By using a spectrophotometric technique (530 nm, range 0.12–0.15), the turbidity of the yeast stock suspension was calibrated to 0.5 McFarland Standard. Next, the standardized suspension was diluted first at 1:50 with SAB and then at 1:20 in the same medium to have […]. A total of 100 µL of inoculum was seeded into each well. As a control for growth, several wells containing only inoculated broth were prepared. The plates were incubated for 48 h at 37 °C, and the MIC values were calculated as the final well with no fungal growth. […] MIC values were observed based on the absence of fungal growth in the final well. The MICs were calculated by conducting the antifungal test three times in duplicate. As a control, amphotericin B was used.

[2] = tested on: MCF-10A cells; test: MTT cell viability assay, nonmalignant MCF-10A; conditions: Homo sapiens, 72 h exposure, nonmalignant breast epithelial cells, mean ± SD, read-out: IC50 MCF10-A
Experimental: The anticancer activity of the studied compounds (3a–h) was explored with regards to two human breast cancer cell lines, namely the estrogen receptor positive (ER+) MCF-7 cells and the triple negative MDA-MB-231 cells (ER-, PR-, and HER-2/Neu-). Cells were continuously exposed to the test substances for 72 h, after which their viability was assessed by means of the MTT assay. Table 2 lists the determined IC50 values for the investigated substances and the reference drug, thalidomide. […] Additionally, the same test for all the compounds has been performed on nonmalignant breast epithelial cells (MCF-10A) to ascertain their potential cytotoxicity.
The four cell lines used in this work (MCF-7, MDA-MB-231, MCF-10A, and 3T3-L1) were obtained from the American Type Culture Collection (ATCC, Manassas, VA, USA). All cell lines were maintained at 37 °C in a humidified atmosphere of 95% air and 5% CO2 and periodically screened for contamination. MCF-7, human breast cancer cells estrogen receptor (ER)-positive, and human breast cancer triple negative MDA-MB231 were grown in DMEM-F12 medium containing 2 mmol/L L-glutamine, 1 mg/mL penicillin–streptomycin, and 5% newborn calf serum (NCS) or 5% fetal bovine serum (FBS), respectively. MCF-10A human mammary epithelial cells were cultured in DMEM/F12 medium, supplemented with 5% horse serum (HS) (Eurobio, Les Ullis, Cedex, France), 100 U/mL penicillin/streptomycin, […], 20 ng/mL hEGF (human epidermal growth factor), […], and […] (Sigma-Aldrich, Milano, Italy). BALB/3T3 murine fibroblast cells were cultured in DMEM high glucose supplemented with 10% bovine calf serum (BCS), 1% L-glutamine, and 100 U/mL penicillin/streptomycin.
Cell viability was evaluated by means of the 3-(4,5-dimethylthiazol-2-y1)-2,5-diphenyltetra zolium bromide (MTT, Sigma-Aldrich, Milan, Italy) assay. On 48-well plates, cells were seeded, and they were cultured in complete medium. Before being treated, cells were starved in serum-free medium for 24 h to allow cell cycle synchronization. Subsequently, cells were exposed to increasing doses of each compound for 72 h in phenol-red-free media supplemented with 1% serum before fresh MTT was added to each well (final concentration: 0.5 mg/mL). Cells were lysed with DMSO after 2 h of incubation at 37 °C, and optical density at 570 nm was then determined with a microplate reader. Using GraphPad Prism 9 software (GraphPad Inc., San Diego, CA, USA), the mean absorbance for each sample was expressed as a percentage over the control and plotted vs. drug concentrations to establish the IC50 values. The given standard deviations (SDs) are indicative of three separate tests carried out in triplicate.

[3] = tested on: Candida albicans 10231; test: Antifungal microdilution, C. albicans ATCC 10231; conditions: microdilution CLSI M27-A3, 48 h, 37 °C
Experimental: as §1, §2

[4] = tested on: Candida albicans 90028; test: Antifungal microdilution, C. albicans ATCC 90028; conditions: microdilution CLSI M27-A3, 48 h, 37 °C
Experimental: as §1, §2

[5] = tested on: Candida glabrata 15126; test: Antifungal microdilution, C. glabrata ATCC 15126; conditions: Nakaseomyces glabratus, microdilution CLSI M27-A3, 48 h, 37 °C, read-out: MIC C.g. 15126
Experimental: as §1, §2

SMILES	MIC [1] [µg/mL]	MIC [3] [µg/mL]	MIC [4] [µg/mL]	MIC [5] [µg/mL]	IC50 [2] [µM]
COc1cc2nc(N3C(=O)c4ccccc4C3=O)sc2cc1OC [3f, 2-[5,6-Dimethoxy-1,3-benzothiazol-2-yl]-1H-isoindole-1,3(2H)-dione]	32 (≈ 94 µM)	32 (≈ 94 µM)	64 (≈ 188 µM)	32 (≈ 94 µM)	> 500
O=C1c2ccccc2C(=O)N1c1nc2ccccc2s1 [3a, 2-(1,3-benzothiazol-2-yl)-1H-isoindole-1,3(2H)-dione]	32 (≈ 114 µM)	64 (≈ 228 µM)	64 (≈ 228 µM)	32 (≈ 114 µM)	> 500
O=C1c2ccccc2C(=O)N1c1nc2ccc(Oc3ccccc3)cc2s1 [3h, 2-[6-Phenoxy-1,3-benzothiazol-2-yl]-1H-isoindole-1,3(2H)-dione]	16 (≈ 43 µM)	32 (≈ 85.9 µM)	32 (≈ 85.9 µM)	16 (≈ 43 µM)	193.9 ± 1
O=C1c2ccccc2C(=O)N1c1nc2ccc(O)cc2s1 [3g, 2-[6-Hydroxy-1,3-benzothiazol-2-yl]-1H-isoindole-1,3(2H)-dione]	32 (≈ 108 µM)	32 (≈ 108 µM)	64 (≈ 216 µM)	32 (≈ 108 µM)	> 500

Continued, in another order:

MIC [1] [µg/mL]	MIC [3] [µg/mL]	MIC [4] [µg/mL]	MIC [5] [µg/mL]	SMILES	IC50 [2] [µM]
> 512	> 512	> 512	> 512	Cc1ccc2nc(N3C(=O)c4ccccc4C3=O)sc2c1 [3d, 2-[6-Methyl-1,3-benzothiazol-2-yl]-1H-isoindole-1,3(2H)-dione]	> 500
64 (≈ 184 µM)	64 (≈ 184 µM)	64 (≈ 184 µM)	64 (≈ 184 µM)	O=C1c2ccccc2C(=O)N1c1nc2ccc(C(F)(F)F)cc2s1 [3c, 2-[6-Trifluoromethyl-1,3-benzothiazol-2-yl]-1H-isoindole-1,3(2H)-dione]	> 500
32 (≈ 107 µM)	64 (≈ 215 µM)	64 (≈ 215 µM)	32 (≈ 107 µM)	O=C1c2ccccc2C(=O)N1c1nc2ccc(F)cc2s1 [3b, 2-(6-Fluoro-1,3-benzothiazol-2-yl)-1H-isoindole-1,3(2H)-dione]	151.9 ± 1.1
32 (≈ 103 µM)	64 (≈ 206 µM)	64 (≈ 206 µM)	64 (≈ 206 µM)	COc1ccc2nc(N3C(=O)c4ccccc4C3=O)sc2c1 [3e, 2-[6-Methoxy-1,3-benzothiazol-2-yl]-1H-isoindole-1,3(2H)-dione]	> 500
